Where two headings read alike, the source gives them in different places.
Experiments:
Assay type in all cases: cell-based
[1] = test system: THP-1 (human macrophage tumor); assay: MTT proliferation inhibition, THP-1 cells; conditions: THP-1 cell; for inhibition at 7.5 µM: 7.5 μmol/L; for inhibition at 7.5 µM / inhibition at 15 µM / inhibition at 30 µM / inhibition at 60 µM / inhibition at 120 µM / inhibition at 240 µM / inhibition at 480 µM / inhibition at 960 µM: read-out: Inhibitory rate (%); for inhibition at 15 µM: 15 μmol/L; for inhibition at 30 µM: 30 μmol/L; for inhibition at 60 µM: 60 μmol/L; for inhibition at 120 µM: 120 μmol/L; for inhibition at 240 µM: 240 μmol/L; for inhibition at 480 µM: 480 μmol/L; for inhibition at 960 µM: 960 μmol/L; for IC50: MTT, Bliss method
Text: (§1) The Silica Gel Column Chromatography and Countercurrent Chromatography preparation techniques were used to obtain Friedelin monomer extracted from EZR2002 for the sake of evaluating its anti-tumor activity further. The purity of this monomer determined by GC-MS analysis was 90.5%.
(§2) A375 (human malanoma), L929 (mouse lung epithelial tumor), Hela (human cervical tumor) and THP-1 (human macrophage tumor) cell lines were used for active filtration test in this experiment. Among these cell lines, A375, L929 and Hela were adherent cells while THP-1 was a kind of suspended cell.
(§3) All cells were maintained in the RPMI-1640 culture medium supplemented with 10% fetal calf serum, penicillin (100 U/mL), streptomycin (100 μg/mL) and 0.2% NaHCO3. These supplements were dissolved in deionized water and 0.22 μm filtration membrane was used for filter sterilization. The fetal calf serum was inactivated 30 min at 56° C. prior to an experiment. Cells were cultured in a humidified incubator of 5% CO2 at 37° C.
(§4) A375, L929 and Hela cells in logarithmic growth phases were seeded at a cell density of approximately 5×10^4 cells/mL in 96 pore plates (100 μL/well). Furthermore, THP-1 cell was seeded at a cell density of approximately 1×10^5 cells/mL because it was smaller than others. Samples were added in suspended cells after culturing 4 h and in adherent cells after culturing 12 h. Friedelin was dissolved in DMSO in advance and then in the culture medium with the ultrasonic treatment, where the final concentration of the solvent in the culture medium was <0.1% (v/v). Sample was added for 7.5, 15, 30, 60, 120, 240, 480 and 960 μmol/L. Each level had four parallel pores and a negative control. The cells were incubated for 24 and 48 h and then 15 μL/well MTT solvent (5 mg/mL) was added.
(§5) The cells were incubated for 48 h, followed by centrifugation at 1500 rpm for 5 min. The supernatant was removed and 150 μL/well DMSO was added, followed by micro-vibrator shocking for 10 min and crystal dissolving completely. The absorbance (OD value) was measured by enzyme-labeled meter at 492 nm. Furthermore, the inhibitory rate of cell proliferation and the IC50 value of friedelin were counted by using Bliss method.

[2] = test system: L929 (mouse lung epithelial tumor); assay: MTT proliferation inhibition, L929 cells; conditions: L929 cell; for Inhibitory rate (%) / inhibition at 120 µM: 120 μmol/L; for inhibition at 7.5 µM / inhibition at 15 µM / inhibition at 30 µM / inhibition at 60 µM / inhibition at 120 µM / inhibition at 240 µM / inhibition at 480 µM / inhibition at 960 µM / IC50: Mus musculus; for inhibition at 7.5 µM: 7.5 μmol/L; for inhibition at 7.5 µM / inhibition at 15 µM / inhibition at 30 µM / inhibition at 60 µM / inhibition at 120 µM / inhibition at 240 µM / inhibition at 480 µM / inhibition at 960 µM: read-out: Inhibitory rate (%); for inhibition at 15 µM: 15 μmol/L; for inhibition at 30 µM: 30 μmol/L; for inhibition at 60 µM: 60 μmol/L; for inhibition at 240 µM: 240 μmol/L; for inhibition at 480 µM: 480 μmol/L; for inhibition at 960 µM: 960 μmol/L; for IC50: MTT, Bliss method
Text: as §1, §2, §3, §4, §5
(§6) The de-methyl-cantharidin was taken as the positive control and the inhibitory rate of A375, L929 and Hela cells were measured by adding de-methyl-cantharidin (120 μmol/L) for 24 and 48 h (Table 8). Furthermore, the corresponding data of Friedelin were counted.

A375 (human malanoma) = assay: MTT proliferation inhibition, A375 cells; conditions: A375 cell; for inhibition at 7.5 µM / inhibition at 15 µM / inhibition at 30 µM / inhibition at 60 µM / inhibition at 120 µM / inhibition at 240 µM / inhibition at 480 µM / inhibition at 960 µM / IC50: Homo sapiens; for inhibition at 7.5 µM: 7.5 μmol/L; for inhibition at 7.5 µM / inhibition at 15 µM / inhibition at 30 µM / inhibition at 60 µM / inhibition at 120 µM / inhibition at 240 µM / inhibition at 480 µM / inhibition at 960 µM: read-out: Inhibitory rate (%); for inhibition at 15 µM: 15 μmol/L; for inhibition at 30 µM: 30 μmol/L; for inhibition at 60 µM: 60 μmol/L; for inhibition at 240 µM: 240 μmol/L; for inhibition at 480 µM: 480 μmol/L; for inhibition at 960 µM: 960 μmol/L; for IC50: A-375, MTT, Bliss method
Text: as §1, §2, §3, §4, §5, §6

[3] = test system: Hela (human cervical tumor); assay: MTT proliferation inhibition, Hela cells; conditions: Hela cell; for Inhibitory rate (%) / inhibition at 120 µM: 120 μmol/L; for inhibition at 7.5 µM / inhibition at 15 µM / inhibition at 30 µM / inhibition at 60 µM / inhibition at 120 µM / inhibition at 240 µM / inhibition at 480 µM / inhibition at 960 µM / IC50: Homo sapiens; for inhibition at 7.5 µM / inhibition at 15 µM / inhibition at 30 µM / inhibition at 60 µM / inhibition at 120 µM / inhibition at 240 µM / inhibition at 480 µM / inhibition at 960 µM: HeLa, read-out: Inhibitory rate (%); for inhibition at 7.5 µM: 7.5 μmol/L; for inhibition at 15 µM: 15 μmol/L; for inhibition at 30 µM: 30 μmol/L; for inhibition at 60 µM: 60 μmol/L; for inhibition at 240 µM: 240 μmol/L; for inhibition at 480 µM: 480 μmol/L; for inhibition at 960 µM: 960 μmol/L; for IC50: MTT, Bliss method
Text: as §1, §2, §3, §4, §5, §6

C[C@H]1C(=O)CC[C@@H]2[C@]1(C)CC[C@H]1[C@@]2(C)CC[C@@]2(C)[C@@H]3CC(C)(C)CC[C@]3(C)CC[C@]12C [Friedelin, friedelin]
inhibition at 7.5 µM ([1]; 24 h): 4.89% | inhibition at 15 µM ([1]; 24 h): 0% | inhibition at 30 µM ([1]; 24 h): 3.04% | inhibition at 60 µM ([1]; 24 h): 45.2% | inhibition at 120 µM ([1]; 24 h): 58.8% | inhibition at 240 µM ([1]; 24 h): 68.5% | inhibition at 480 µM ([1]; 24 h): 74.1% | inhibition at 960 µM ([1]; 24 h): 70.8% | IC50 ([1]; 24 h): 85.1 µM | inhibition at 7.5 µM ([1]; 48 h): 8.6% | inhibition at 15 µM ([1]; 48 h): 0% | inhibition at 30 µM ([1]; 48 h): 7.57% | inhibition at 60 µM ([1]; 48 h): 52.6% | inhibition at 120 µM ([1]; 48 h): 77.3% | inhibition at 240 µM ([1]; 48 h): 95% | inhibition at 480 µM ([1]; 48 h): 92.9% | inhibition at 960 µM ([1]; 48 h): 82.5% | IC50 ([1]; 48 h): 58 µM | Inhibitory rate (%) ([2]; 24 h): 37.6% | Inhibitory rate (%) ([2]; 48 h): 81.1% | inhibition at 7.5 µM ([2]; L929, 24 h, 24 h): 5.42% | inhibition at 15 µM ([2]; L929, 24 h, 24 h): 10.4% | inhibition at 30 µM ([2]; L929, 24 h, 24 h): 13.2% | inhibition at 60 µM ([2]; L929, 24 h, 24 h): 22.7% | inhibition at 120 µM ([2]; L929, 24 h, 24 h): 37.6% | inhibition at 240 µM ([2]; L929, 24 h, 24 h): 52.3% | inhibition at 480 µM ([2]; L929, 24 h, 24 h): 48.1% | inhibition at 960 µM ([2]; L929, 24 h, 24 h): 38.9% | inhibition at 7.5 µM ([2]; L929, 48 h, 48 h): 17.3% | inhibition at 15 µM ([2]; L929, 48 h, 48 h): 21.6% | inhibition at 30 µM ([2]; L929, 48 h, 48 h): 38.8% | inhibition at 60 µM ([2]; L929, 48 h, 48 h): 66.8% | inhibition at 120 µM ([2]; L929, 48 h, 48 h): 81.1% | inhibition at 240 µM ([2]; L929, 48 h, 48 h): 99.5% | inhibition at 480 µM ([2]; L929, 48 h, 48 h): 98.2% | inhibition at 960 µM ([2]; L929, 48 h, 48 h): 89.9% | IC50 ([2]; 24 h): 665 µM | IC50 ([2]; 48 h): 36.9 µM | Inhibitory rate (%) (A375 (human malanoma); 48 h, 120 μmol/L): 88.6% | inhibition at 7.5 µM (A375 (human malanoma); A-375, 24 h, 24 h): 0% | inhibition at 15 µM (A375 (human malanoma); A-375, 24 h, 24 h): 6.43% | inhibition at 30 µM (A375 (human malanoma); A-375, 24 h, 24 h): 0.43% | inhibition at 60 µM (A375 (human malanoma); A-375, 24 h, 24 h): 14.1% | inhibition at 120 µM (A375 (human malanoma); A-375, 24 h, 24 h, 120 μmol/L): 36.7% | inhibition at 240 µM (A375 (human malanoma); A-375, 24 h, 24 h): 44.8% | inhibition at 480 µM (A375 (human malanoma); A-375, 24 h, 24 h): 63.3% | inhibition at 960 µM (A375 (human malanoma); A-375, 24 h, 24 h): 60.4% | inhibition at 7.5 µM (A375 (human malanoma); A-375, 48 h, 48 h): 0.51% | inhibition at 15 µM (A375 (human malanoma); A-375, 48 h, 48 h): 6.29% | inhibition at 30 µM (A375 (human malanoma); A-375, 48 h, 48 h): 17.2% | inhibition at 60 µM (A375 (human malanoma); A-375, 48 h, 48 h): 44.4% | inhibition at 120 µM (A375 (human malanoma); A-375, 48 h, 48 h, 120 μmol/L): 88.6% | inhibition at 240 µM (A375 (human malanoma); A-375, 48 h, 48 h): 100% | inhibition at 480 µM (A375 (human malanoma); A-375, 48 h, 48 h): 96.1% | inhibition at 960 µM (A375 (human malanoma); A-375, 48 h, 48 h): 89.8% | IC50 (A375 (human malanoma); 24 h): 357 µM | IC50 (A375 (human malanoma); 48 h): 61.5 µM | Inhibitory rate (%) ([3]; 24 h): 71.6% | Inhibitory rate (%) ([3]; 48 h): 86.0% | inhibition at 7.5 µM ([3]; 24 h, 24 h): 35% | inhibition at 15 µM ([3]; 24 h, 24 h): 34.7% | inhibition at 30 µM ([3]; 24 h, 24 h): 33.3% | inhibition at 60 µM ([3]; 24 h, 24 h): 43.4% | inhibition at 120 µM ([3]; 24 h, 24 h): 71.6% | inhibition at 240 µM ([3]; 24 h, 24 h): 88.2% | inhibition at 480 µM ([3]; 24 h, 24 h): 88.1% | inhibition at 960 µM ([3]; 24 h, 24 h): 73.8% | inhibition at 7.5 µM ([3]; 48 h, 48 h): 20% | inhibition at 15 µM ([3]; 48 h, 48 h): 17.2% | inhibition at 30 µM ([3]; 48 h, 48 h): 24.6% | inhibition at 60 µM ([3]; 48 h, 48 h): 41.4% | inhibition at 120 µM ([3]; 48 h, 48 h): 86% | inhibition at 240 µM ([3]; 48 h, 48 h): 99.5% | inhibition at 480 µM ([3]; 48 h, 48 h): 98% | inhibition at 960 µM ([3]; 48 h, 48 h): 92% | IC50 ([3]; 24 h): 61.2 µM | IC50 ([3]; 48 h): 64.7 µM

Reference: patent US7811997B2, “Composition containing total triterpenoid sapogenins extracted from bamboo, and the preparation method and use thereof” (priority 2002, dated 2010)
